We go through three molecules from ChEMBL document CHEMBL3817808, “Enlarging the chemical space of anti-leishmanials: a structureactivity relationship study of peptoids against Leishmania mexicana, a causative agent of cutaneous leishmaniasis” (Medchemcomm, 2016).

The test system of data set [1] is Leishmania mexicana. The experiment in a line: Antileishmanial activity against axenic amastigote form of Leishmania mexicana MNYC/BZ/62/M379 assessed as parasite viability measured after 1 hr by alamarBlue staining based fluorescence analysis. The format is functional. To be noted: MNYC/BZ/62/M379, 1 h, read-out: ED50 (the source's name).
Data set [2] has as its system Leishmania mexicana. Kind of data set: Antileishmanial activity against Leishmania mexicana MNYC/BZ/62/M379 amastigotes infected in mouse RAW264.7 cells assessed as parasite viability measured after 24 hrs by alamarBlue staining based fluorescence analysis. It counts as functional. On the technique in general: Alamar Blue is a resazurin reagent that responds to reducing activity.

Data set [3] can be described thus: Cytotoxicity against mouse RAW264.7 cells measured after 24 hrs by alamarBlue staining based fluorescence analysis. It counts as cell-based. To be noted: read-out: ED50.
In data set [4] the test system is Leishmania mexicana. Kind of data set: Antileishmanial activity against Leishmania mexicana MNYC/BZ/62/M379 promastigotes assessed as parasite viability measured after 1 hr by alamarBlue staining based fluorescence analysis. It counts as functional. The note with it: MNYC/BZ/62/M379, 1 h, read-out: ED50 (the source's name).

Non-standard residues stand in square brackets, D forms with d. Residues, ends and D or L forms follow the SMILES beside them. Gly(N-2-aminoethyl) = NCCNCC(=O)O; Nphe = O=C(O)CNCc1ccccc1 Some results are limits rather than exact numbers.

On to `CCCCCNCC(=O)N(CC(=O)N(CC(=O)N(CCCCC)CC(=O)N(CC(=O)N(CC(=O)N(CCCCN)CC(=O)N(CC(=O)N(CC(=O)N(CCCCN)CC(=O)N(CC(=O)N(CC(N)=O)[C@@H](C)c1ccccc1)[C@@H](C)c1ccccc1)C(C)c1ccccc1)[C@@H](C)c1ccccc1)C(C)c1ccccc1)[C@@H](C)c1ccccc1)C(C)c1ccccc1)[C@@H](C)c1ccccc1` (single isomer, unassigned), for which the figures for the EC50 in the data set on Leishmania mexicana [1] and in the data set on Leishmania mexicana [4] were 16 µM and 11 µM, respectively. Further, the ED50 in the data set on Leishmania mexicana [2] was determined as 1.6 µM. The CC50 at 24 h in data set [3] worked out at 1.7 µM.
The like results for `C[C@@H]1[C@H](O)[C@@H](C)/C=C/C=C/C=C/C=C/C=C/C=C/C=C/[C@H](O[C@@H]2O[C@H](C)[C@@H](O)[C@H](N)[C@@H]2O)C[C@@H]2O[C@](O)(C[C@@H](O)C[C@@H](O)[C@H](O)CC[C@@H](O)C[C@@H](O)CC(=O)O[C@H]1C)C[C@H](O)[C@H]2C(=O)O` [AMPHOTERICIN B] were, in that order, under 2 µM, under 2 µM, 0.195 µM and over 5 µM.
The corresponding values for `NCCNCC(=O)N(CC(=O)N(CC(=O)N(CCN)CC(=O)N(CC(=O)N(CC(=O)N(CCN)CC(=O)N(CC(=O)N(CC(=O)N(CCN)CC(=O)N(CC(=O)N(CC(N)=O)Cc1ccccc1)Cc1ccccc1)Cc1ccccc1)Cc1ccccc1)Cc1ccccc1)Cc1ccccc1)Cc1ccccc1)Cc1ccccc1` (H-[Gly(N-2-aminoethyl)][Nphe][Nphe][Gly(N-2-aminoethyl)][Nphe][Nphe][Gly(N-2-aminoethyl)][Nphe][Nphe][Gly(N-2-aminoethyl)][Nphe][Nphe]-NH2) are over 100 µM, 21 µM, over 5 µM and over 5 µM.
